Assay results reported in article PMC8398432 (Molecules, 2021).
Like-named read-outs stand apart in the source and are kept apart here.

Assays:
hTRPM8 = tested on: hTRPM8; design: method as in PMID 31850745; details: cited from earlier work
mouse α4β2 nAChRs = molecular target: T1, mouse α4β2 nAChRs (Mus musculus, UniProt O70174+Q9ERK7); test: Calcium 6 Ca2+ flux assay, neuro-2a cells transiently transfected with α4β2 nAChRs; format: cell-based
T1 construct: expressed in transfected cells; host or cells: mouse neuroblastoma-2a (neuro-2a) cells, transient transfection with Lipofectamine 3000
T1 sequence (O70174 31-629): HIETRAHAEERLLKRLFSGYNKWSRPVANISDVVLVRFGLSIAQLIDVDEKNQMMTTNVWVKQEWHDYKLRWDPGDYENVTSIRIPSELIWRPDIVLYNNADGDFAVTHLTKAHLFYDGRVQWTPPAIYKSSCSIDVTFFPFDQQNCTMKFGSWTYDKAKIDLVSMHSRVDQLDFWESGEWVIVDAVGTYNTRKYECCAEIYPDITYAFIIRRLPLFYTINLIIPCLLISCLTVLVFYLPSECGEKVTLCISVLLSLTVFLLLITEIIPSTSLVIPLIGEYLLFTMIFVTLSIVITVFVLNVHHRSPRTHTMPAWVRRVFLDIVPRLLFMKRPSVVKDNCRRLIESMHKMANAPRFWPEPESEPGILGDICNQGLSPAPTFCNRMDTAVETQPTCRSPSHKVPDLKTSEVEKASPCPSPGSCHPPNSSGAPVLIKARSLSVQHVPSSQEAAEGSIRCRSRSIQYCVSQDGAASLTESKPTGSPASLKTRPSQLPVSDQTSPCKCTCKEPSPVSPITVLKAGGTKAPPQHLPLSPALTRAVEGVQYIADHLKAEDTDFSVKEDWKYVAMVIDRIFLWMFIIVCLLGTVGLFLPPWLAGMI
T1 sequence (Q9ERK7 26-501): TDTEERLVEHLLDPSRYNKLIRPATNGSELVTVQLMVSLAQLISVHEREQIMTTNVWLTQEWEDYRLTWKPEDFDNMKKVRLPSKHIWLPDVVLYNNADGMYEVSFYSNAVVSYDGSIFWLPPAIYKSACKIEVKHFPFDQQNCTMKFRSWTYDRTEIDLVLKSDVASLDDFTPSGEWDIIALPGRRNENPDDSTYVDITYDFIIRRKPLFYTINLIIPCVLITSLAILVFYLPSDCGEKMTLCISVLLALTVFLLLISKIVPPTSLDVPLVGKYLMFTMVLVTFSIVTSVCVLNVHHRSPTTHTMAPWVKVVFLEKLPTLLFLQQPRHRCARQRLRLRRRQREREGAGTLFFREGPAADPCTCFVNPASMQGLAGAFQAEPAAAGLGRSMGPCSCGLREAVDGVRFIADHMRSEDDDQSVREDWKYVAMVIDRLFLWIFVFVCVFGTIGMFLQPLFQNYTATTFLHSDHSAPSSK

MDR1 = test: in vitro; details: dog; for efflux ratio at 120 min, 5 μM: MDCK-MDR1, pH 7.4; for recovery at 120 min, 5 μM: MDCK-MDR1, pH 7.4, Recovery (%), pH 7.4, 120 minutes
Method: (§1) MDR1-MDCK Permeability. Pharmacokinetic experiments with compounds were performed by Absorption Systems (Exton, PA, USA). MDR1-MDCK cell monolayers were grown to confluence on collagen-coated, microporous membranes in 12-well assay plates. The permeability assay buffer was Hanks’ balanced salt solution containing 10 mM HEPES and 15 mM glucose at a pH of 7.4. The buffer in the receiver chamber also contained 1% bovine serum albumin. The dosing solution concentration was 5 […]
(§2) μM of test article in the assay buffer. Cell monolayers were dosed on the apical side (A-to-B) or basolateral side (B-to-A) and incubated at 37°C with 5% CO2 in a humidified incubator. Samples were […]
(§3) chambers at 0 and 120 minutes; samples were taken from the receiver chambers at 120 minutes. Each determination was performed in duplicate. The flux of lucifer yellow was also measured post-experimentally for each monolayer to ensure no damage was inflicted to the cell monolayers during the flux period. All samples were assayed by LC-MS/MS using electrospray ionization. Analytical conditions were carried out as previously described (REF:Journigan ACS CN 2020). The apparent permeability (Papp) and percent recovery were calculated as follows:
(§4) Papp = (dCr /dt) × Vr/(A × C0) (1)
(§5) Percent Recovery = 100 × ((Vr × Crfinal) + (Vd × Cd final))/(Vd × C0) (2) […]
(§6) dCr /dt is the slope of the cumulative receiver concentration versus time in M sµ -1;
(§7) Vr is the volume of the receiver compartment in cm3;
(§8) Vd is the volume of the donor compartment in cm3;
(§9) A is the area of the insert (1.13 cm2 for 12-well);
(§10) C0 is the measured concentration of the donor chamber at time 0 in μM;
(§11) Crfinal is the cumulative receiver concentration in μM at the end of the incubation period; Cdfinal is the concentration of the donor in μM at the end of the incubation period.
(§12) Efflux ratio (ER) is defined as Papp (B-to-A) / Papp (A-to-B).
(§13) Brain Penetration Potential Classification:
(§14) Papp (A-to-B) ≥ 3.0 and ER < 3.0: High
(§15) Papp (A-to-B) ≥ 3.0 and 10 > ER ≥ 3.0: Moderate

[1] = tested on: MDR1-MDCK cell monolayers; test: in vitro
Method: as §1, §2, §3, §4, §5, §6, §7, §8, §9, §10, §11, §12, §13, §14, §15

[2] = Stability in mouse liver microsomes; format: in vitro ADME
Method: Mouse Liver Microsome Assays. These assays were carried out as detailed previously.

C57BL/6J mice = test: Conditioned place preference (CPP) assay; format: in vivo, mouse
Method: CPP assays were completed in a three-chamber spatial place preference chamber (Harvard Apparatus, PanLab, dimensions: 47.5 × 27.5 × 47.5 cm) using male and female C57BL/6J mice. Time in chambers was recorded by motion tracking software (SMART 3.0). […] On day 1, a pre-test was completed wherein mice were placed in the central chamber and allowed free access to the apparatus for 20 min. Mice that spent >65% of the test in one chamber were excluded and the remaining mice were counterbalanced. For counterbalancing, mice were separated into groups of approximately equal bias, similar to previously published CPP methods. No exclusions were necessary for these studies. Following counterbalancing, no initial biases were noted. The mice received their designated drug injections on days 2, 4, 6, and 8, and received saline injections on days 3, 5, 7, and 9. Each conditioning period lasted 20 min. On day 10, a post-test was completed whereby the mice were again placed in the central chamber and allowed free access for 20 min. In total, 5 male and 5 female C57BL/6J mice, 3–5 months old, were used in the CPP assays for each treatment group. Time spent in the saline-paired chamber was subtracted from time spent in the drug-paired chamber to score the pre-test and post-test. CPP score (or change from baseline) was determined by subtracting the pre-test score from the post-test score. A significant positive CPP score is indicative of reward-related behavior, while a significant reduction is indicative of aversion-related behavior.
No sex differences were observed and data for males and females were combined (see Results for specifics). Data are expressed as a change in baseline preference, which was analyzed using a one-way ANOVA with a post hoc Tukey.

[3] = reported; ref 1 (supplement); cited from earlier work
[4] = in the presence of 100 µM nicotine

For O=C(NC1CCCCC1)c1ccc(-c2ccccc2)cc1 [VBJ032], the IC50 (hTRPM8) is listed as 49000 ± 1000 nM and the “concentration at which maximum increase occurs” value (mouse α4β2 nAChRs; [4]) is listed as 50 µM.

In the case of O=C(NC1CCCCCCC1)c1ccc(-c2ccccc2)cc1 [VBJ051], the IC50 (hTRPM8) is listed as 62 ± 1 nM and the “concentration at which maximum increase occurs” value (mouse α4β2 nAChRs; [4]) is listed as 50 µM.

With O=C(NC(C1CCCCC1)C1CCCCC1)c1ccc(-c2ccccc2)cc1 [VBJ098] the “activity as an agonist, PM, or antagonist” value (mouse α4β2 nAChRs; α4β2 nAChRs) was “no activity”.

Work on O=C(NC1CCC2CCCCC2C1)c1ccc(-c2ccccc2)cc1 (stereo not drawn) [VBJ104] yielded an efflux ratio at 120 min, 5 μM (MDR1) of 0.685, a Papp at 120 min, 5 μM (MDR1; MDCK-MDR1, pH 7.4, Papp R2) of 1.67 ×10⁻⁶ cm/s and a Papp at 120 min, 5 μM (MDR1; MDCK-MDR1, pH 7.4, Papp average) of 1.79 ×10⁻⁶ cm/s. For the same compound, the recovery at 120 min, 5 μM (MDR1; A-to-B, 5 μM) was 70.8%, the recovery at 120 min, 5 μM (MDR1; B-to-A, 5 μM) was 86.9% and the “Brain Penetration Classification” value ([1]; MDCK-MDR1) was “Low”. For the same compound, the “MDR1-MDCK permeability efflux ratio (in words)” value ([1]; MDCK-MDR1) was “low”, the Papp average ([1]; dog, MDCK-MDR1, 120 min, 5 μM, pH 7.4) was 1.22 10-6 cm/s and the IC50 (hTRPM8) was 6 ± 1 nM. The Emax (mouse α4β2 nAChRs; N2a, read-out: Max Efficacy (Normalized to 100 µM Nicotine), in the presence of 100 µM nicotine, mean ± SEM) was 361%, the “concentration at which maximum increase occurs” value (mouse α4β2 nAChRs; [4]) was 100 µM and the “Max Efficacy (Normalized to 100 µM Nicotine)” value (mouse α4β2 nAChRs; in the presence of 100 µM nicotine, mean ± SEM) was 360.7 ± 37.7%. The half-life ([2]; mouse, microsomes) was 11.3 min, the microsomal CLint ([2]; mouse, microsomes) was 122 µL/min/mg and the remaining at 0 h ([2]; mouse, microsomes) was 100%. It also gave a remaining at 10 min ([2]; mouse, microsomes) of 40.8%, a remaining at 20 min ([2]; mouse, microsomes) of 30.7% and a remaining at 0.5 h ([2]; mouse, microsomes) of 22.5%. For the same compound, the remaining at 1 h ([2]; mouse, microsomes) was 10.3%, the “reward-related behavior (in words)” value (C57BL/6J mice; 0.5 mg/kg nicotine plus 0.5 mg/kg VBJ104, compared to nicotine, p < 0.05) was “significant increase in reward-related behavior” and the “reward-related behavior (in words)” value (C57BL/6J mice; 0.5 mg/kg nicotine plus 1.0 mg/kg VBJ104, p < 0.0001 vs saline, not vs nicotine alone) was “significant CPP compared to saline”. For the same compound, the CPP score (C57BL/6J mice; female mice, 0.5 mg/kg nicotine plus 0.5 mg/kg VBJ104, intraperitoneal) was 269.8 and the CPP score (C57BL/6J mice; male mice, 0.5 mg/kg nicotine plus 0.5 mg/kg VBJ104, intraperitoneal) was 261.5.

In the case of O=C(NC1CCc2ccccc2C1)c1ccc(-c2ccccc2)cc1 (stereo not drawn) [VBJ109], the IC50 (hTRPM8) is listed as 52 ± 1 nM and the “concentration at which maximum increase occurs” value (mouse α4β2 nAChRs; [4]) is listed as 50 µM.

Work on C[C@H]1O[C@@H](O[C@H]2[C@@H](O)C[C@H](O[C@H]3[C@@H](O)C[C@H](O[C@H]4CC[C@@]5(C)[C@H](CC[C@@H]6[C@@H]5C[C@@H](O)[C@]5(C)[C@@H](C7=CC(=O)OC7)CC[C@]65O)C4)O[C@@H]3C)O[C@@H]2C)C[C@H](O)[C@@H]1O [digoxin, reference compound] yielded an efflux ratio at 120 min, 5 μM (MDR1) of 299, a Papp at 120 min, 5 μM (MDR1; MDCK-MDR1, pH 7.4, Papp average, A-to-B, 5 μM) of 0.0612 ×10⁻⁶ cm/s and a Papp at 120 min, 5 μM (MDR1; MDCK-MDR1, pH 7.4, Papp average, B-to-A, 5 μM) of 18.3 ×10⁻⁶ cm/s.

For CN1CCC[C@H]1c1cccnc1 [nicotine, Nicotine ditartrate dihydrate, reference compound], the “T1/2 of nicotine in mice” value [3] is given as 6 to 7 min, the “place preference (in words)” value (C57BL/6J mice; 0.5 mg/kg nicotine, males and females combined, post hoc Tukey) is given as “significant place preference” and the CPP score (C57BL/6J mice; female mice, 0.5 mg/kg nicotine, intraperitoneal) is given as 127.5. For the same compound, the CPP score (C57BL/6J mice; male mice, 0.5 mg/kg nicotine, intraperitoneal) was 131.2.

C[C@]12CC[C@H]3[C@@H](CCC4=CC(=O)CC[C@@]43C)[C@@H]1CC[C@@H]2O [testosterone, reference compound] gave a half-life ([2]; mouse liver microsomes) of 4.58 min and a microsomal CLint ([2]; mouse liver microsomes, read-out: CLint) of 302 µL/min/mg.
